Experimental data taken from patent publication US20150352108A1, “AMINO-PYRIMIDINE COMPOUNDS AS INHIBITORS OF TBK1 AND/OR IKK EPSILON” (Alzheimer's Institute of America, priority 2009, published 2015).
Read-outs that look alike come from different tables or passages of the source.

Experiments:
IKKε = target: T1, IKKε (Homo sapiens, UniProt Q14164); experiment: In-vitro IKKε kinase assay ([γ33]ATP filter-plate); assay type: biochemical
T1 construct: His-tag; made in house; host or cells: Sf9 insect cells
T1 sequence (Q14164 1-716): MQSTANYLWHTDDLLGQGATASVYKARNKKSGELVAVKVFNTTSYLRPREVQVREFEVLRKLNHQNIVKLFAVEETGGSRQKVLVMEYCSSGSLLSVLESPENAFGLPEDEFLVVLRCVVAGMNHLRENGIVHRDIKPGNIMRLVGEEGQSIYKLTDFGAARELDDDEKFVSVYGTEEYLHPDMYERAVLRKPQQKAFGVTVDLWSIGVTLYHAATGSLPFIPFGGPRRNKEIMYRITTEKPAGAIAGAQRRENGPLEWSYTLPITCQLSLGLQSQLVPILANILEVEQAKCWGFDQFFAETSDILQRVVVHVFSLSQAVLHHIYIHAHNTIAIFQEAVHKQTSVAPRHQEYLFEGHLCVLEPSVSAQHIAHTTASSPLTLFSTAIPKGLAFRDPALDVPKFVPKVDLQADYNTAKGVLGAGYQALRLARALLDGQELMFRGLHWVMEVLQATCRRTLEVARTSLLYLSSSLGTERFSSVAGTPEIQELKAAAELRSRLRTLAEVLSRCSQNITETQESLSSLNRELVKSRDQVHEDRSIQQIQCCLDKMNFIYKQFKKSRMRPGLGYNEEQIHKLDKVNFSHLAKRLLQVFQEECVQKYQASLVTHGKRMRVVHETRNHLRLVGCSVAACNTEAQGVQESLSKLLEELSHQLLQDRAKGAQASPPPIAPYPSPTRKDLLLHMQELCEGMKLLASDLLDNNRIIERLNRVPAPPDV
Summary of the method: (§1)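 Phosphorylation of casein or myelin basic protein was counted by P-81 filter capture after 30-45 min reactions stopped with phosphoric acid, with counts normalized to DMSO after background subtraction. ATP was twice Km: 60 μM for TBK1 and 32 μM for IKKε, plus [γ33]ATP. Sf9-expressed His-tag enzymes were used at normal/sensitized levels of 0.1/0.02 μg/ml (TBK1) and 0.1/0.015 μg/ml (IKKε).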

[1] = test system: IKKε-mediated phosphorylation of IRF3; experiment: In-situ phosphorylation of IRF3 (pIRF3 Ser396 ELISA) in HEK293T cells cotransfected with IRF3 and IKKε; assay type: cell-based; settings: Homo sapiens, HEK-293T
Summary of the method: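 Cells for the IRF7 Western blots carried IRF7 and TBK1 plasmids, were seeded at 150,000/well, exposed to compound overnight and probed for pSer477/Ser479 IRF7. The ELISA readout used IRF3 + IKKε-cotransfected HEK293T at 20,000/well with 20 h treatment, quantifying pSer396 IRF3 relative to DMSO, plus a parallel CellTiter-Glo viability check.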

TBK1 = target: T2, TBK1 (Homo sapiens, UniProt Q9UHD2); experiment: In-vitro TBK1 kinase assay ([γ33]ATP filter-plate); assay type: biochemical
T2 construct: His-tag; made in house; host or cells: Sf9 insect cells
T2 sequence (Q9UHD2 1-729): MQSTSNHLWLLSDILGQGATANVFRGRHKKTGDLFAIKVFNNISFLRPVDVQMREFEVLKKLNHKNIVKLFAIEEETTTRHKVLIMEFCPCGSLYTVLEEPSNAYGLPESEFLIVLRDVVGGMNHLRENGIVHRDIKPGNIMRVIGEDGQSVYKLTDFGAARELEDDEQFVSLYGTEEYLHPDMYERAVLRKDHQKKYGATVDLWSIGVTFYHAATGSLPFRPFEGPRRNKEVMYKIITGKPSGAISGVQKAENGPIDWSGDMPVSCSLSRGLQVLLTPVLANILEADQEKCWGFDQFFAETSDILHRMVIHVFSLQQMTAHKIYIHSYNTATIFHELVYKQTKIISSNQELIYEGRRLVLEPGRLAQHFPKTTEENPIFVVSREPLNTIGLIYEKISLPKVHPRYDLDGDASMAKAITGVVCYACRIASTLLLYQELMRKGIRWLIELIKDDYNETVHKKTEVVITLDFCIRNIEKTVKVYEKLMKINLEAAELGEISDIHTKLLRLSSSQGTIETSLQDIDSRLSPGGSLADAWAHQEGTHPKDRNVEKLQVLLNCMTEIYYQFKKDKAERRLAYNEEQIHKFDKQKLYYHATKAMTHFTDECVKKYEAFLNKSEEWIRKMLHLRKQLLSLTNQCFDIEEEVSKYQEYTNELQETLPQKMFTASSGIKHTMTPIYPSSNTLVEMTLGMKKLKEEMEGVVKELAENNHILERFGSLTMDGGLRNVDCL
Summary of the method: as §1

[2] = text bins, read-out: IC50 for inhibition of the kinase activity of IKKε
[3] = HEK293T cells, 20 hours, text bins, read-out: IC50 for inhibition of the in-situ IKKε-mediated phosphorylation of IRF3
[4] = text bins, read-out: IC50 for inhibition of the kinase activity of TBK1
[5] = HEK293T cells in culture, Table 3, read-out: pIRF3 ELISA IC50

Row | Structure (SMILES) | IC50 (IKKε; [2]) [nM] | IC50 [1, 3] [nM] | IC50 (TBK1; [4]) [nM] | IC50 (IKKε; Table 3, read-out: IKKε IC50) [nM] | IC50 [1, 5] [nM] | IC50 (TBK1; Table 3, read-out: TBK1 IC50) [nM]
1 | COc1cc(Nc2nccc(-c3ccc(OC4CCOCC4)c(C#N)c3)n2)ccc1OCCCN1CCOCC1 [Example 31, 5-[2-({3-methoxy-4-[3-(morpholin-4-tl)propoxy]phenyl}amino)pyrimidin-4-yl]-2-(tetrahydro-2H-pyran-4-yloxy)benzonitrile] | < 5 | < 100 | < 10 | – | – | –
2 | N#Cc1cc(-c2ccnc(Nc3ccc(N4CCOCC4)cc3)n2)ccc1OCC1CCCN(C(=O)CO)C1 (stereo not drawn) [Example 219, 2-{[1-(hydroxyacetyl)piperidin-3-yl]methoxy}-5-(2-{[4-(morpholin-4-yl)phenyl]amino}pyrimidin-4-yl)benzonitrile] | 5 to 50 | 100 to 250 | < 10 | – | – | –
3 | CC1(COc2ccc(-c3ccnc(Nc4ccc(N5CCOCC5)cc4)n3)cc2C#N)COC1 [compound 444, 2-[(3-Methyloxetan-3-yl)methoxy]-5-(2-{[4-(morpholin-4-yl)phenyl]amino}pyrimidin-4-yl)benzonitrile] | < 5 | < 100 | < 10 | – | – | –
4 | N#Cc1cc(-c2ccnc(Nc3ccc(F)c(OCCN)c3)n2)ccc1OC1CCOCC1 [compound 640, 5-(2-{[3-(2-Aminoethoxy)-4-fluorophenyl]amino}pyrimidin-4-yl)-2-(tetrahydro-2H-pyran-4-yloxy)benzonitrile] | < 5 | 100 to 250 | < 10 | – | – | –
5 | Cc1ccc(Nc2nccc(-c3ccc(OC4CCOCC4)c(C#N)c3)n2)cc1OCCN1CCN(C(C)C)CC1 [compound 597, 5-{2-[(4-Methyl-3-{2-[4-(propan-2-yl)piperazin-1-yl]ethoxy}phenyl)amino]pyrimidin-4-yl}-2-(tetrahydro-2H-pyran-4-yloxy)benzonitrile] | < 5 | 100 to 250 | < 10 | – | – | –
6 | CCN1CCC(CCCOc2cc(Nc3nccc(-c4ccc(OC5CCOCC5)c(C#N)c4)n3)ccc2OC)CC1 [compound 521, 5-[2-({3-[3-(1-ethylpiperidin-4-yl)propoxy]-4-methoxyphenyl}amino)pyrimidin-4-yl]-2-(tetrahydro-2H-pyran-4-yloxy)benzonitrile] | < 5 | < 100 | < 10 | – | – | –
7 | CCC(=O)Nc1ccc(-c2ccnc(Nc3ccc(N4CCOCC4)cc3)n2)cc1C#N [compound 445, N-[2-Cyano-4-(2-{[4-(morpholin-4-yl)phenyl]amino}pyrimidin-4-yl)phenyl] propanamide] | 5 to 50 | 250 to 500 | < 10 | – | – | –
8 | COc1cc(Nc2nccc(-c3ccc(OC4CCOCC4)c(C#N)c3)n2)ccc1CO [compound 498, 5-(2-{[4-(hydroxymethyl)-3-methoxyphenyl]amino}pyrimidin-4-yl)-2-(tetrahydro-2H-pyran-4-yloxy)benzonitrile] | < 5 | < 100 | < 10 | – | – | –
9 | N#Cc1cc(-c2ccnc(Nc3cccc(CO)c3)n2)ccc1OC1CCOCC1 [compound 395, 5-(2-{[3-(hydroxymethyl)phenyl]amino}pyrimidin-4-yl)-2-(tetrahydro-2H-pyran-4-yloxy)benzonitrile] | < 5 | < 100 | < 10 | – | – | –
10 | CN1CCN(CCNc2cccc(Nc3nccc(-c4ccc(OC5CCOCC5)c(C#N)c4)n3)c2)CC1 [compound 616, 5-{2-[(3-{[2-(4-Methylpiperazin-1-yl)ethyl]amino}phenyl)amino]pyrimidin-4-yl}-2-(tetrahydro-2H-pyran-4-yloxy)benzonitrile] | < 5 | < 100 | < 10 | 1.1 | 98.5 | 1.6
11 | N#Cc1cc(-c2ccnc(Nc3ccc(N4CCOCC4)cc3)n2)ccc1OCC1CCNCC1 [Example 72, 5-(2-{[4-(morpholin-4-yl)phenyl]amino}pyrimidin-4-yl)-2-(piperidin-4-ylmethoxy) benzonitrile] | < 5 | 250 to 500 | 10 to 100 | – | – | –
12 | CCN(CC)CCOc1cc(Nc2nccc(-c3ccc(OC4CCOCC4)c(C#N)c3)n2)ccc1F [compound 586, 5-[2-({3-[2-(Diethylamino)ethoxy]-4-fluorophenyl}amino)pyrimidin-4-yl]-2-(tetrahydro-2H-pyran-4-yloxy)benzonitrile] | < 5 | 100 to 250 | < 10 | – | – | –
13 | CN(C)S(=O)(=O)Cc1cccc(Nc2nccc(-c3ccc(OC4CCOCC4)c(C#N)c3)n2)c1 [compound 601, 1-[3-({4-[3-Cyano-4-(tetrahydro-2H-pyran-4-yloxy)phenyl]pyrimidin-2-yl}amino)phenyl]-N,N-dimethylmethane-sulfonamide] | < 5 | 250 to 500 | < 10 | 2.4 | 276 | 0.4
14 | CCN(CC)CCOc1ccc(Nc2nccc(-c3ccc(OC4CCOCC4)c(C#N)c3)n2)cc1OC [compound 530] | < 5 | < 100 | < 10 | – | – | –
15 | CC(C)N1CCN(C(=O)Cc2cccc(Nc3nccc(-c4ccc(OC5CCOCC5)c(C#N)c4)n3)c2)CC1 [compound 408, 5-{2-[(3-{2-Oxo-2-[4-(propan-2-yl)piperazin-1-yl]ethyl}phenyl)amino]pyrimidin-4-yl}-2-(tetrahydro-2H-pyran-4-yloxy)benzonitrile] | 5 to 50 | < 100 | < 10 | – | – | –
16 | N#Cc1cc(-c2ccnc(Nc3ccc(F)c(OCCCN4CCOCC4)c3)n2)ccc1OC1CCOCC1 [compound 519, 5-[2-({4-Fluoro-3-[3-(morpholin-4-yl)propoxy]phenyl}amino)pyrimidin-4-yl]-2-(tetrahydro-2H-pyran-4-yloxy)benzonitrile] | < 5 | < 100 | < 10 | – | – | –
17 | COc1cc(Nc2nccc(-c3ccc(OC4CCOCC4)c(C#N)c3)n2)ccc1C(=O)N1CCN(C)CC1 [compound 354, 5-[2-({3-methoxy-4-[(4-methylpiperazin-1-yl)carbonyl]phenyl}amino)pyrimidin-4-yl]-2-(tetrahydro-2H-pyran-4-yloxy)benzonitrile] | < 5 | < 100 | < 10 | – | – | –
18 | CN1CCC(NS(=O)(=O)c2ccc(Nc3nccc(-c4ccc(OC5CCOCC5)c(C#N)c4)n3)cc2)CC1 [compound 371, 4-({4-[3-cyano-4-(tetrahydro-2H-pyran-4-yloxy)phenyl]pyrimidin-2-yl}amino)-N-(1-methylpiperidin-4-yl)benzenesulfonamide] | < 5 | 100 to 250 | < 10 | – | – | –
19 | COc1cc(Nc2nccc(-c3ccc(OC4CCOCC4)c(C#N)c3)n2)ccc1C(=O)N1CC(CN(C)C)C1 [compound 507, 5-(2-{[4-({3-[(dimethylamino)methyl]azetidin-1-yl}carbonyl)-3-methoxyphenyl]amino}pyrimidin-4-yl)-2-(tetrahydro-2H-pyran-4-yloxy)benzonitrile] | < 5 | < 100 | < 10 | – | – | –
